{"source": "patent US10004711B2", "about": "“Methods and compositions comprising 10-hydroxy-2-decenoic acid” (DSM IP ASSETS B.V., priority 2014, dated 2018)", "key": {"[1]": {"test_system": "Neurons from the brain's hippocampus", "test": "Glutamate toxicity, mitochondrial health (TMRE)", "assay_type": "cell-based, rat", "details": "for Mitochondrial Health (% Control): glutamate 25 μM 24 h", "description": "Neurons from the brain's hippocampus were derived from E17 pups and incubated for 7 days. The cells were pre-treated with QBA for 48 hours and subsequently challenged with glutamate (25 μM) for 24 hours. The cultures were then stained with propidium iodide, a marker of cell death, and with tetramethylrhodamine ethyl ester (TMRE), a marker for mitochondrial health. The fluorescence of each of these markers was then quantitated with a fluorimeter."}, "[2]": {"test_system": "older rats", "test": "Open field test, older rats fed QBA", "assay_type": "in vivo, rat", "details": "for Center Entries (#): rats 15 months old, thirty minutes", "description": "The dose-response characteristics of 10-Hydroxy-2-decenoic acid's (QBA's) potential brain health benefits during aging were assessed for mood in older rats (18-20 months old).\nIn the open field test each rat was placed in a novel environment consisting of an arena measuring 100×100×40 cm. Rats were placed in the middle of the chamber and behavior in the open field was recorded for thirty minutes with a digital camera and measured by software. More time spent in the center of the area is an indication of a reduced anxiety-like state. Rats were tested at 15 months old (N=11-12 per group)."}, "[3]": {"test_system": "19-20 month-old male rats", "test": "Elevated plus-maze, rats fed QBA alone or QBA+DHA", "assay_type": "in vivo, rat", "details": "DHA 0.00", "description": "Rats were fed QBA and subjected to an elevated plus-maze. The elevated plus-maze was elevated ˜85 cm above the floor and consisted of two open and two closed arms of the same size (50×10 cm). The closed arms were surrounded by walls 40 cm high, and the arms were constructed of black acrylic slabs that radiated from a central platform (10×10 cm) to form a plus sign. Each rat was placed in the central platform facing one of the open arms, and its behavior was recorded during a 5-min testing period with video capture software. More time spent in the open arms is an indication of reduced anxiety-like state. Rats were tested at 18 months old (N=11-13 per group).\nThe dose-response characteristics of 10-Hydroxy-2-decenoic acid's (QBA's) in combination with DHA for potential brain health benefits during aging were assessed for mood in 19-20 month-old male rats (N=11-14 per group). Rats were fed QBA alone or QBA+DHA and subjected to an elevated plus-maze."}, "[4]": {"test_system": "RAW264.7 mouse macrophage cell line", "test": "IL-1β levels after LPS stimulation", "assay_type": "cell-based", "details": "for IL-1β (pg/mL)/Cell Numbers: 24 h", "description": "Cultures of the RAW264.7 mouse macrophage cell line were pre-treated with 10-Hydroxy-2-decenoic acid (QBA) for 1 hour prior to stimulation with lipopolysaccharide (LPS, 100 ng/mL). After 24 hours of incubation, interleukin […] (IL-1β) and tumor necrosis factor-α (TNFα) levels were determined by Luminex technology and cell numbers were measured using Alamar Blue. Results are given as a ratio of cytokine concentration/cell number."}, "[5]": {"test_system": "Human peripheral blood mononuclear cells (PBMC)", "test": "Proliferation of PBMC after αCD3/CD28 stimulation", "assay_type": "cell-based", "details": "for Cell Numbers: 72 h", "description": "Human peripheral blood mononuclear cells (PBMC) were pre-treated with 10-Hydroxy-2-decenoic acid (QBA) for 1 hour prior to stimulation with αCD3/CD28. After 72 hours of incubation, cell number was assessed by Cell Titer Glow."}, "[6]": {"test_system": "Adult female Long-Evans rats", "test": "Ovulatory cycle status of female rats with abnormal ovulatory cycles", "assay_type": "in vivo, rat", "details": "six weeks, count of animals", "source_text": "Adult female Long-Evans rats (3 months-old) with abnormal ovulatory cycles were fed diets containing 10-Hydroxy-2-decenoic acid (QBA) or no QBA for six (6) weeks. Female rats having normal ovulatory cycle were used as positive controls and were not fed QBA."}, "[7]": {"test_system": "histone deacetylases", "details": "Spannhoff et al. 2011; cited from earlier work"}, "[8]": {"test_system": "stem cells", "details": "Hattori et al. 2009; cited from earlier work"}}}
{"smiles": "O=C(O)C=CCCCCCCCO", "note": "[QBA, 10-Hydroxy-2-decenoic acid]", "values": [{"measurement": "Mitochondrial Health (% Control)", "setting": "[1]; QBA 0.10 μM pre-treatment 48 h", "value": 101.94, "unit": "% Control"}, {"measurement": "Mitochondrial Health (% Control)", "setting": "[1]; QBA 0.30 μM pre-treatment 48 h", "value": 112.27, "unit": "% Control"}, {"measurement": "Mitochondrial Health (% Control)", "setting": "[1]; QBA 1.00 μM pre-treatment 48 h", "value": 110.50, "unit": "% Control"}, {"measurement": "Mitochondrial Health (% Control)", "setting": "[1]; QBA 3.00 μM pre-treatment 48 h", "value": 106.39, "unit": "% Control"}, {"measurement": "Mitochondrial Health (% Control)", "setting": "[1]; QBA 10.00 μM pre-treatment 48 h", "value": 111.02, "unit": "% Control"}, {"measurement": "Mitochondrial Health (% Control)", "setting": "[1]; QBA 30.00 μM pre-treatment 48 h", "value": 114.72, "unit": "% Control"}, {"measurement": "Mitochondrial Health (% Control)", "setting": "[1]; QBA 100.00 μM pre-treatment 48 h", "value": 123.80, "unit": "% Control"}, {"measurement": "cell health after glutamate toxicity", "setting": "[1]; summary of Table 3", "value": "increased cell health"}, {"measurement": "Center Entries (#)", "setting": "[2]; QBA 0.4 mg/kg/day", "value": "1.82 #"}, {"measurement": "Center Entries (#)", "setting": "[2]; QBA 4 mg/kg/day", "value": "2.50 #"}, {"measurement": "Center Entries (#)", "setting": "[2]; QBA 12 mg/kg/day", "value": "1.82 #"}, {"measurement": "anxiety as measured by the number of center entries in the open field arena", "setting": "[2]; QBA 24 mg/kg/d, 15-18-month old male rats", "value": "decreased anxiety"}, {"measurement": "Center Entries (#)", "setting": "[2]; QBA 24 mg/kg/day", "value": "3.75 #"}, {"measurement": "Time (s) in Open Arm", "setting": "[3]; QBA 12 mg/kg/day", "value": 31.7, "unit": "s"}, {"measurement": "Time (s) in Open Arm", "setting": "[3]; QBA 24 mg/kg/day", "value": 31.7, "unit": "s"}, {"measurement": "IL-1β (pg/mL)/Cell Numbers", "setting": "[4]; QBA 50 μM 1 h before LPS 100 ng/mL", "value": "0.00386 (pg/mL)/Cell Numbers"}, {"measurement": "IL-1β (pg/mL)/Cell Numbers", "setting": "[4]; QBA 100 μM 1 h before LPS 100 ng/mL", "value": "0.00402 (pg/mL)/Cell Numbers"}, {"measurement": "IL-1β (pg/mL)/Cell Numbers", "setting": "[4]; QBA 500 μM 1 h before LPS 100 ng/mL", "value": "0.00242 (pg/mL)/Cell Numbers"}, {"measurement": "IL-1β (pg/mL)/Cell Numbers", "setting": "[4]; QBA 1000 μM 1 h before LPS 100 ng/mL", "value": "0.00242 (pg/mL)/Cell Numbers"}, {"measurement": "IL-1β (pg/mL)/Cell Numbers", "setting": "[4]; QBA 2500 μM 1 h before LPS 100 ng/mL", "value": "0.00097 (pg/mL)/Cell Numbers"}, {"measurement": "IL-1β (pg/mL)/Cell Numbers", "setting": "[4]; QBA 5000 μM 1 h before LPS 100 ng/mL", "value": "0.00067 (pg/mL)/Cell Numbers"}, {"measurement": "production of IL-1β in immune cells", "setting": "[4]; summary of Table 9", "value": "reduced the production"}, {"measurement": "Cell Numbers", "setting": "[5]; QBA 50 μM 1 h before αCD3/CD28", "value": 517020}, {"measurement": "Cell Numbers", "setting": "[5]; QBA 100 μM 1 h before αCD3/CD28", "value": 472678}, {"measurement": "Cell Numbers", "setting": "[5]; QBA 500 μM 1 h before αCD3/CD28", "value": 442008}, {"measurement": "Cell Numbers", "setting": "[5]; QBA 1000 μM 1 h before αCD3/CD28", "value": 344026}, {"measurement": "Cell Numbers", "setting": "[5]; QBA 2500 μM 1 h before αCD3/CD28", "value": 104291}, {"measurement": "Cell Numbers", "setting": "[5]; QBA 5000 μM 1 h before αCD3/CD28", "value": 1601}, {"measurement": "concentrations that reduced the proliferation of human immune cells", "setting": "[5]; summary of Table 11", "value": "greater than 500 μM"}, {"measurement": "Ovulatory Cycle Status Abnormal", "setting": "[6]; QBA 0.4 mg/kg/day", "value": 7}, {"measurement": "Ovulatory Cycle Status Normal", "setting": "[6]; QBA 0.4 mg/kg/day", "value": 8}, {"measurement": "Ovulatory Cycle Status Abnormal", "setting": "[6]; QBA 4 mg/kg/day", "value": 9}, {"measurement": "Ovulatory Cycle Status Normal", "setting": "[6]; QBA 4 mg/kg/day", "value": 6}, {"measurement": "Ovulatory Cycle Status Abnormal", "setting": "[6]; QBA 12 mg/kg/day", "value": 4}, {"measurement": "Ovulatory Cycle Status Normal", "setting": "[6]; QBA 12 mg/kg/day", "value": 11}, {"measurement": "Ovulatory Cycle Status Abnormal", "setting": "[6]; QBA 24 mg/kg/day", "value": 12}, {"measurement": "Ovulatory Cycle Status Normal", "setting": "[6]; QBA 24 mg/kg/day", "value": 3}, {"measurement": "histone deacetylase inhibition", "setting": "[7]", "value": "inhibits histone deacetylases"}, {"measurement": "neurogenesis and gliogenesis from stem cells", "setting": "[8]", "value": "stimulation of neurogenesis from stem cells while inhibiting gliogenesis"}]}
